Assays:
[1] = excess molar enthalpy (molar enthalpy of mixing); xn = mol fraction of the nth substance listed; settings: 101 kPa, Liquid, Flow calorimetry
[2] = xn = mol fraction of the nth substance listed; settings: 101 kPa, Liquid

CCCC[n+]1ccc(C)cc1.F[B-](F)(F)F [1-butyl-4-methylpyridinium tetrafluoroborate] + CO
Settings	excess molar enthalpy [kcal/mol]	mass density [kg/m3]
[1], 298.15 K, x1 = 0.0155	0.0607	–
[1], 298.15 K, x1 = 0.0359	0.116	–
[1], 298.15 K, x1 = 0.0582	0.159	–
[1], 298.15 K, x1 = 0.0832	0.217	–
[1], 298.15 K, x1 = 0.1111	0.27	–
[1], 298.15 K, x1 = 0.1397	0.329	–
[1], 298.15 K, x1 = 0.1698	0.377	–
[1], 298.15 K, x1 = 0.1711	0.392	–
[1], 298.15 K, x1 = 0.1953	0.415	–
[1], 298.15 K, x1 = 0.2214	0.435	–
[1], 298.15 K, x1 = 0.2412	0.453	–
[1], 298.15 K, x1 = 0.2755	0.469	–
[1], 298.15 K, x1 = 0.3109	0.48	–
[1], 298.15 K, x1 = 0.3617	0.475	–
[1], 298.15 K, x1 = 0.427	0.453	–
[1], 298.15 K, x1 = 0.507	0.411	–
[1], 298.15 K, x1 = 0.6029	0.35	–
[1], 298.15 K, x1 = 0.7161	0.272	–
[1], 298.15 K, x1 = 0.8469	0.154	–
[1], 318.2 K, x1 = 0.0102	0.0337	–
[1], 318.21 K, x1 = 0.0238	0.0662	–
[1], 318.22 K, x1 = 0.0405	0.098	–
[1], 318.23 K, x1 = 0.0635	0.178	–
[1], 318.24 K, x1 = 0.0898	0.261	–
[1], 318.25 K, x1 = 0.1174	0.336	–
[1], 318.26 K, x1 = 0.1476	0.403	–
[1], 318.27 K, x1 = 0.1778	0.457	–
[1], 318.28 K, x1 = 0.1969	0.498	–
[1], 318.29 K, x1 = 0.2103	0.529	–
[1], 318.3 K, x1 = 0.2392	0.559	–
[1], 318.31 K, x1 = 0.2699	0.579	–
[1], 318.32 K, x1 = 0.3021	0.603	–
[1], 318.33 K, x1 = 0.3442	0.61	–
[1], 318.34 K, x1 = 0.3846	0.619	–
[1], 318.35 K, x1 = 0.4397	0.614	–
[1], 318.36 K, x1 = 0.4968	0.595	–
[1], 318.37 K, x1 = 0.5563	0.57	–
[1], 318.38 K, x1 = 0.6281	0.533	–
[1], 318.39 K, x1 = 0.7109	0.466	–
[1], 318.4 K, x1 = 0.8042	0.362	–
[1], 318.41 K, x1 = 0.8793	0.239	–
[1], 318.42 K, x1 = 0.9607	0.0937	–
[2], 298.15 K, x1 = 0.0539	–	880.6
[2], 298.15 K, x1 = 0.0819	–	916.2
[2], 298.15 K, x1 = 0.095	–	931.5
[2], 298.15 K, x1 = 0.1078	–	944.4
[2], 298.15 K, x1 = 0.1549	–	984.7
[2], 298.15 K, x1 = 0.2038	–	1017.3
[2], 298.15 K, x1 = 0.3016	–	1064.3
[2], 298.15 K, x1 = 0.3729	–	1088.5
[2], 298.15 K, x1 = 0.4548	–	1110.8
[2], 298.15 K, x1 = 0.5027	–	1120.9
[2], 298.15 K, x1 = 0.5533	–	1131.2
[2], 298.15 K, x1 = 0.6076	–	1140.4
[2], 298.15 K, x1 = 0.7174	–	1155.8
[2], 298.15 K, x1 = 0.8053	–	1165.6
[2], 298.15 K, x1 = 0.9129	–	1176
[2], 318.15 K, x1 = 0.0489	–	855.9
[2], 318.15 K, x1 = 0.096	–	915.9
[2], 318.15 K, x1 = 0.1439	–	961.3
[2], 318.15 K, x1 = 0.1894	–	994.2
[2], 318.15 K, x1 = 0.3003	–	1049.4
[2], 318.15 K, x1 = 0.3551	–	1068.5
[2], 318.15 K, x1 = 0.4349	–	1091.7
[2], 318.15 K, x1 = 0.4888	–	1103.9
[2], 318.15 K, x1 = 0.5342	–	1112.7
[2], 318.15 K, x1 = 0.5959	–	1123.9
[2], 318.15 K, x1 = 0.6592	–	1133.5
[2], 318.15 K, x1 = 0.7266	–	1142.3
[2], 318.15 K, x1 = 0.8378	–	1154.8
[2], 318.15 K, x1 = 0.9046	–	1161.4
